According to the supplement of paper PMC10307832:

Tests used:
Test in all cases: relative viability (nuclei count vs DMSO), 5 days (fraction); higher = more cells survive
LXF-289 = test system: LXF-289
How it was run: (§1)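 For relative viability, nuclei counts in treated wells were divided by those in vehicle wells. Lung cancer cell lines had been pin-tool dosed in 1536-well plates the day after seeding and cultured for 5 days, then fixed and stained in one step (final 0.05% Triton X-100, 1% formaldehyde, 1 ug/ml Hoechst) and imaged at 4×. Doses were one drug alone or a fixed anchor-drug dose plus five library-drug doses (not always all listed) in √10 steps, and values are duplicate-plate medians.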

NCI-H2170 = test system: NCI-H2170
How it was run: as §1

COR-L 105 = test system: COR-L 105
How it was run: as §1

HCC-78 = test system: HCC-78
How it was run: as §1

UMC-11 = test system: UMC-11
How it was run: as §1

NCI-H1944 = test system: NCI-H1944
How it was run: as §1

NCI-H2085 = test system: NCI-H2085
How it was run: as §1

SK-LU-1 = test system: SK-LU-1
How it was run: as §1

EPLC-272H = test system: EPLC-272H
How it was run: as §1

NCI-H1793 = test system: NCI-H1793
How it was run: as §1

HCC-366 = test system: HCC-366
How it was run: as §1

HOP-62 = test system: HOP-62
How it was run: as §1

NCI-H358 = test system: NCI-H358
How it was run: as §1

NCI-H1666 = test system: NCI-H1666
How it was run: as §1

LU99A = test system: LU99A
How it was run: as §1

NCI-H1915 = test system: NCI-H1915
How it was run: as §1

LC-2-ad = test system: LC-2-ad
How it was run: as §1

NCI-H1792 = test system: NCI-H1792
How it was run: as §1

NCI-H2009 = test system: NCI-H2009
How it was run: as §1

NCI-H460 = test system: NCI-H460
How it was run: as §1

SW 900 = test system: SW 900
How it was run: as §1

A-427 = test system: A-427
How it was run: as §1

Nc1ccn([C@@H]2O[C@H](CO)[C@@H](O)[C@@H]2O)c(=O)n1 [Cytarabine] + CC(=O)c1c(C)c2cnc(Nc3ccc(N4CCNCC4)cn3)nc2n(C2CCCC2)c1=O [Palbociclib] (partner 0.5 µM)
relative viability (LXF-289; first compound 0.005 µM): 0.49
relative viability (LXF-289; first compound 0.01581 µM): 0.563
relative viability (LXF-289; first compound 0.05 µM): 0.511
relative viability (LXF-289; first compound 0.1581 µM): 0.296
relative viability (LXF-289; first compound 0.5 µM): 0.287
relative viability (NCI-H2170; first compound 0.005 µM): 0.369
relative viability (NCI-H2170; first compound 0.01581 µM): 0.266
relative viability (NCI-H2170; first compound 0.05 µM): 0.26
relative viability (NCI-H2170; first compound 0.1581 µM): 0.177
relative viability (NCI-H2170; first compound 0.5 µM): 0.186
relative viability (COR-L 105; first compound 0.005 µM): 0.37
relative viability (COR-L 105; first compound 0.01581 µM): 0.37
relative viability (COR-L 105; first compound 0.05 µM): 0.27
relative viability (COR-L 105; first compound 0.1581 µM): 0.351
relative viability (COR-L 105; first compound 0.5 µM): 0.324
relative viability (HCC-78; first compound 0.005 µM): 0.492
relative viability (HCC-78; first compound 0.01581 µM): 0.42
relative viability (HCC-78; first compound 0.05 µM): 0.393
relative viability (HCC-78; first compound 0.1581 µM): 0.366
relative viability (HCC-78; first compound 0.5 µM): 0.361
relative viability (UMC-11; first compound 0.005 µM): 0.371
relative viability (UMC-11; first compound 0.01581 µM): 0.304
relative viability (UMC-11; first compound 0.05 µM): 0.263
relative viability (UMC-11; first compound 0.1581 µM): 0.236
relative viability (UMC-11; first compound 0.5 µM): 0.219
relative viability (NCI-H1944; first compound 0.005 µM): 0.283
relative viability (NCI-H1944; first compound 0.01581 µM): 0.248
relative viability (NCI-H1944; first compound 0.05 µM): 0.207
relative viability (NCI-H1944; first compound 0.1581 µM): 0.205
relative viability (NCI-H1944; first compound 0.5 µM): 0.16
relative viability (NCI-H2085; first compound 0.005 µM): 0.445
relative viability (NCI-H2085; first compound 0.01581 µM): 0.425
relative viability (NCI-H2085; first compound 0.05 µM): 0.393
relative viability (NCI-H2085; first compound 0.1581 µM): 0.294
relative viability (NCI-H2085; first compound 0.5 µM): 0.266
relative viability (SK-LU-1; first compound 0.005 µM): 0.371
relative viability (SK-LU-1; first compound 0.01581 µM): 0.419
relative viability (SK-LU-1; first compound 0.05 µM): 0.271
relative viability (SK-LU-1; first compound 0.1581 µM): 0.307
relative viability (SK-LU-1; first compound 0.5 µM): 0.284
relative viability (EPLC-272H; first compound 0.005 µM): 0.319
relative viability (EPLC-272H; first compound 0.01581 µM): 0.29
relative viability (EPLC-272H; first compound 0.05 µM): 0.281
relative viability (EPLC-272H; first compound 0.1581 µM): 0.249
relative viability (EPLC-272H; first compound 0.5 µM): 0.219
relative viability (NCI-H1793; first compound 0.005 µM): 0.341
relative viability (NCI-H1793; first compound 0.01581 µM): 0.267
relative viability (NCI-H1793; first compound 0.05 µM): 0.268
relative viability (NCI-H1793; first compound 0.1581 µM): 0.228
relative viability (NCI-H1793; first compound 0.5 µM): 0.262
relative viability (HCC-366; first compound 0.005 µM): 0.302
relative viability (HCC-366; first compound 0.01581 µM): 0.287
relative viability (HCC-366; first compound 0.05 µM): 0.245
relative viability (HCC-366; first compound 0.1581 µM): 0.0953
relative viability (HCC-366; first compound 0.5 µM): 0.0777
relative viability (HOP-62; first compound 0.005 µM): 0.395
relative viability (HOP-62; first compound 0.01581 µM): 0.297
relative viability (HOP-62; first compound 0.05 µM): 0.234
relative viability (HOP-62; first compound 0.1581 µM): 0.139
relative viability (HOP-62; first compound 0.5 µM): 0.155
relative viability (NCI-H358; first compound 0.005 µM): 0.126
relative viability (NCI-H358; first compound 0.01581 µM): 0.115
relative viability (NCI-H358; first compound 0.05 µM): 0.0934
relative viability (NCI-H358; first compound 0.1581 µM): 0.0712
relative viability (NCI-H358; first compound 0.5 µM): 0.0692
relative viability (NCI-H1666; first compound 0.005 µM): 0.611
relative viability (NCI-H1666; first compound 0.01581 µM): 0.573
relative viability (NCI-H1666; first compound 0.05 µM): 0.627
relative viability (NCI-H1666; first compound 0.1581 µM): 0.511
relative viability (NCI-H1666; first compound 0.5 µM): 0.575
relative viability (LU99A; first compound 0.005 µM): 0.409
relative viability (LU99A; first compound 0.01581 µM): 0.399
relative viability (LU99A; first compound 0.05 µM): 0.391
relative viability (LU99A; first compound 0.1581 µM): 0.388
relative viability (LU99A; first compound 0.5 µM): 0.288
relative viability (NCI-H1915; first compound 0.005 µM): 0.532
relative viability (NCI-H1915; first compound 0.01581 µM): 0.47
relative viability (NCI-H1915; first compound 0.05 µM): 0.37
relative viability (NCI-H1915; first compound 0.1581 µM): 0.265
relative viability (NCI-H1915; first compound 0.5 µM): 0.2
relative viability (LC-2-ad; first compound 0.005 µM): 0.412
relative viability (LC-2-ad; first compound 0.01581 µM): 0.417
relative viability (LC-2-ad; first compound 0.05 µM): 0.505
relative viability (LC-2-ad; first compound 0.1581 µM): 0.379
relative viability (LC-2-ad; first compound 0.5 µM): 0.412
relative viability (NCI-H1792; first compound 0.005 µM): 0.853
relative viability (NCI-H1792; first compound 0.01581 µM): 0.655
relative viability (NCI-H1792; first compound 0.05 µM): 0.618
relative viability (NCI-H1792; first compound 0.1581 µM): 0.508
relative viability (NCI-H1792; first compound 0.5 µM): 0.468
relative viability (NCI-H2009; first compound 0.005 µM): 0.211
relative viability (NCI-H2009; first compound 0.01581 µM): 0.192
relative viability (NCI-H2009; first compound 0.05 µM): 0.187
relative viability (NCI-H2009; first compound 0.1581 µM): 0.154
relative viability (NCI-H2009; first compound 0.5 µM): 0.125
relative viability (NCI-H460; first compound 0.005 µM): 0.156
relative viability (NCI-H460; first compound 0.01581 µM): 0.0617
relative viability (NCI-H460; first compound 0.05 µM): 0.0499
relative viability (NCI-H460; first compound 0.1581 µM): 0.0475
relative viability (NCI-H460; first compound 0.5 µM): 0.044
relative viability (SW 900; first compound 0.005 µM): 0.536
relative viability (SW 900; first compound 0.01581 µM): 0.515
relative viability (SW 900; first compound 0.05 µM): 0.451
relative viability (SW 900; first compound 0.1581 µM): 0.362
relative viability (SW 900; first compound 0.5 µM): 0.292
relative viability (A-427; first compound 0.005 µM): 0.437
relative viability (A-427; first compound 0.01581 µM): 0.474
relative viability (A-427; first compound 0.05 µM): 0.363
relative viability (A-427; first compound 0.1581 µM): 0.281
relative viability (A-427; first compound 0.5 µM): 0.273
